Test results from patent publication US6783973B1, “Mammalian catecholamine receptor genes and uses” (Oregon Health & Science University, priority 2000, dated 2004).

How the values were obtained:
[1] = test system: human catecholamine receptor; assay: MAP kinase pathway stimulation, Elk-gal/luciferase reporter assay in HEK 293 cells transfected with H2-3pcDNA3.1; details: HEK 293 cells expressing FLAG/D2-tagged human catecholamine receptor; compared with cells incubated in the absence of the ligand
[2] = test system: HEK 293 cells transfected with pcDNA3.1 without catecholamine receptor sequences; assay: MAP kinase pathway stimulation, Elk-gal/luciferase reporter assay in control HEK 293 cells transfected with pcDNA3.1; details: control HEK 293 cells with empty vector pcDNA3.1; compared with cells incubated in the absence of the ligand

Row | Structure (SMILES) | fold stimulation of luciferase (MAP kinase activation), H2-3 pcDNA3.1 [1] [fold] | fold stimulation of luciferase (MAP kinase activation), pcDNA3.1 [2] [fold]
1 | NC[C@H](O)c1ccc(O)c(O)c1 [Norepinephrine] | 1.69 | 1.3
2 | NCCc1c[nH]c2ccc(O)cc12 [Serotonin] | 1.22 | 1
3 | C=CCN1CCc2c(cc(O)c(O)c2Cl)C(c2ccccc2)C1 (centres unmarked) [SKF82958] | 2.52 | 0.79
4 | NC1CCc2cc(O)c(O)cc2C1 (centres unmarked) [ADTN67] | 1.93 | 0.78
